Values quoted from earlier work in patent US10202376B2, “Heterocyclic compound” (Takeda Pharmaceutical Company Limited, priority 2014, dated 2019).

Test system: NMDA receptor
Details: in vivo; cited from earlier work

CC12CC3CC(C)(C1)CC(N)(C3)C2 [memantine]
peripheral symptoms of dementia: partially improves peripheral symptoms of dementia
